In brackets after ≈: the same amount, converted by molar mass. Read-outs that look alike come from different tables or passages of the source.
How the values were obtained:
[1] = Solubility in solvents and mixture solvents; format: physicochemical
Description: As there may be potential Form A/H (Anhydrate) or Form I (THF solvate) in water or THF system according to the polymorph screening report, the use of water and THF were avoided in following study. […]

[2] = Solubility in aqueous media at 37° C.; format: physicochemical; settings: for XRPD of residual solids: 24 h; for solubility at 2 h / solubility at 24 h: thermodynamic from solid
Procedure: The anhydrate Form C (equivalent to 8 mg of free form) was weighed into a 20 mL glass vial. 4 mL of solubility medium was added. Obtained suspensions were stirred at 37° C. at 400 rpm. Some of the suspensions were taken out at 2 hours and 24 hours, respectively. Then they were centrifuged at 3700 at 14,000 rpm for 5 (m. Supernatants were analyzed by HPLC and pH meter for solubility and pH, respectively. Residual solids (wet cakes) were characterized by XRPD to determine physical form.

[3] = Competitive equilibration experiments of anhydrates; settings: at both 25° C. and 50° C.
Procedure: Relative stability of the anhydrate Forms A, C, H and J was investigated with competitive equilibration experiments.
Relative stability of the anhydrates Forms C, K and L was investigated with competitive equilibration experiments.
To determine relative stability of anhydrates, competitive equilibration experiments were conducted in different solvent systems.
About 2 mg of each anhydrate was added to 0.3-0.4 mL saturated solutions of selected solvents. Obtained suspensions were stirred at 25° C. for 3-10 days, respectively. Solid parts (wet cakes) were isolated by centrifugation filtration and investigated by XRPD.

[4] = Interconversion of polymorphs (heating, dehydration, humidity, equilibration); format: physicochemical
Description: In total, 15 forms were identified to be polymorphs or pseudo-polymorphs of the free form, including seven anhydrates, Forms A, C, H, J, K. L and O; four hydrates, Forms B, F, M and N; and three solvates, Forms D, E and I. In addition, a metastable form, Form G, and an amorphous form were also obtained.
The interconversion relation of polymorphs identified is outlined in FIG. 5.

[5] = Hygroscopicity by dynamic vapor sorption (DVS); format: physicochemical
Procedure: Dynamic vapor sorption (DVS) was performed on an Intrinsic, Advantage or Adventure with an oven temperature of 25° C. using water as a solvent. The sample mass was about 5-10 mg using the following method: • Cycle: 40-0-95-0-40% RH • Stage Step: 10% • Equilibrium: 0.002 dm/dt (%/min) • Minimum dm/dt stability duration: 60 min • Maximum dm/dt stage time: 360 min. Analysis of Polymorphs
Hygroscopicity of Form C was evaluated by dynamic vapor sorption (DVS) test at 25° C. Form C is non-hygroscopic below 90% relative humidity (RH). Form C absorbs about 0.2% water in 95% RH at 25° C.

[6] = Bulk stability of Form C over 1 week; format: physicochemical; settings: for Bulk (XRPD) / Color / Purity, Bulk (HPLC): Solid state
Procedure: Bulk stability of Form C was evaluated at 25° C./92% RH in an open container, at 40° C./75% RH in an open container and at 60° C. in a tight container over 1 week.

[7] = pH 7.0 phosphate buffer (50 mM)
[8] = aqueous buffer, pH 3.0 citrate buffer (50 mM)
[9] = aqueous buffer, pH 5.0 acetate buffer (50 mM)
[10] = aqueous buffer, pH 7.0 phosphate buffer (50 mM)
[11] = simulated gastric fluid, pH 1.0 HCl solution (0.1N)
[12] = 25° C./92% RH, open container, 1 week
[13] = 40° C./75% RH, open container, 1 week
[14] = 60° C., tight container, 1 week

Cc1nc(-c2c[nH]c3c(C#N)cccc23)cnc1OCC(C)(C)O [Form C, 3-(5-(2-hydroxy-2-methylpropoxy)-6-methylpyrazin-2-yl)-1H-indole-7-carbonitrile]
XRPD ([1]; 2-ME-THF/n-hep mixtures, 50 ° C. (printed at 4/0.5, probably merged for all rows)): Form C
Solubility ([1]; 2-MeTHF, 25° C.): 117 mg/mL solvent
Solubility ([1]; 2-MeTHF, 50° C.): 154 mg/mL solvent
Solubility ([1]; 2-MeTHF/n-heptane 1/1 (v/v), organic solvent or mixture, thermodynamic from solid, 2-ME-THF/n-hep = 1/1 (v/v), 25 ° C., read-out: Solubility): 13000 µg/mL (≈ 40.3 mM)
Solubility ([1]; 2-MeTHF/n-heptane 1/2 (v/v), organic solvent or mixture, thermodynamic from solid, 2-ME-THF/n-hep = 1/2 (v/v), 25 ° C., read-out: Solubility): ~4000 µg/mL (≈ 12.4 mM)
Solubility ([1]; 2-MeTHF/n-heptane 1/3 (v/v), organic solvent or mixture, thermodynamic from solid, 2-ME-THF/n-hep = 1/3 (v/v), 25 ° C., read-out: Solubility): ~2000 µg/mL (≈ 6.2 mM)
Solubility ([1]; 2-MeTHF/n-heptane 4/0.5 (v/v), organic solvent or mixture, thermodynamic from solid, 2-ME-THF/n-hep = 4/0.5 (v/v), 50 ° C., read-out: Solubility): 122000 µg/mL (≈ 378 mM)
Solubility ([1]; 2-MeTHF/n-heptane 4/1 (v/v), organic solvent or mixture, thermodynamic from solid, 2-ME-THF/n-hep = 4/1 (v/v), 50 ° C., read-out: Solubility): 90000 µg/mL (≈ 279 mM)
Solubility ([1]; 2-MeTHF/n-heptane 4/2 (v/v), organic solvent or mixture, thermodynamic from solid, 2-ME-THF/n-hep = 4/2 (v/v), 50 ° C., read-out: Solubility): 49000 µg/mL (≈ 152 mM)
Solubility ([1]; 2-MeTHF/n-heptane 4/4 (v/v), organic solvent or mixture, thermodynamic from solid, 2-ME-THF/n-hep = 4/4 (v/v), 50 ° C., read-out: Solubility): 21000 µg/mL (≈ 65.1 mM)
Solubility ([1]; 2-MeTHF/n-heptane 4/8 (v/v), organic solvent or mixture, thermodynamic from solid, 2-ME-THF/n-hep = 4/8 (v/v), 50 ° C., read-out: Solubility): 10000 µg/mL (≈ 31 mM)
Solubility ([1]; 2-MeTHF/n-heptane 4/12 (v/v), organic solvent or mixture, thermodynamic from solid, 2-ME-THF/n-hep = 4/12 (v/v), 50 ° C., read-out: Solubility): 5000 µg/mL (≈ 15.5 mM)
Solubility ([1]; Acetone, 25° C.): 66 mg/mL solvent
Solubility ([1]; Acetone, 50° C.): 122 mg/mL solvent
Solubility ([1]; EA, 25° C.): 32 mg/mL solvent
Solubility ([1]; EA, 50° C.): 58 mg/mL solvent
XRPD ([1]; EA, 50° C. (cell printed at this row, probably merged downwards)): Form C
Solubility ([1]; Ethanol, 25° C.): 27 mg/mL solvent
Solubility ([1]; Ethanol, 50° C.): 64 mg/mL solvent
Solubility ([1]; Heptane, 25° C.): ~2 mg/mL solvent
Solubility ([1]; Heptane, 50° C.): ~3 mg/mL solvent
Solubility ([1]; IPA, 25° C.): 14 mg/mL solvent
Solubility ([1]; IPA, 50° C.): 29 mg/mL solvent
Solubility ([1]; MCH, 25° C.): ~3 mg/mL solvent
Solubility ([1]; MCH, 50° C.): ~3 mg/mL solvent
Solubility ([1]; MEK, 25° C.): 63 mg/mL solvent
Solubility ([1]; MEK, 50° C.): 110 mg/mL solvent
Solubility ([1]; MEK/n-heptane 1/1 (v/v), organic solvent or mixture, thermodynamic from solid, MEK/n-hep = 1/1 (v/v), 25 ° C., read-out: Solubility): 16000 µg/mL (≈ 49.6 mM)
Solubility ([1]; MEK/n-heptane 1/2 (v/v), organic solvent or mixture, thermodynamic from solid, MEK/n-hep = 1/2 (v/v), 25 ° C., read-out: Solubility): 6000 µg/mL (≈ 18.6 mM)
Solubility ([1]; MEK/n-heptane 1/3 (v/v), organic solvent or mixture, thermodynamic from solid, MEK/n-hep = 1/3 (v/v), 25 ° C., read-out: Solubility): ~3000 µg/mL (≈ 9.31 mM)
Solubility ([1]; MIBK, 25° C.): 21 mg/mL solvent
Solubility ([1]; MIBK, 50° C.): 28 mg/mL solvent
Solubility ([1]; THF, 25° C.): 247 mg/mL solvent
Solubility ([1]; THF, 50° C.): >200 mg/mL solvent
Solubility ([1]; Toluene, 25° C.): 5 mg/mL solvent
Solubility ([1]; Toluene, 50° C.): 5 mg/mL solvent
XRPD ([1]; Water, 25° C. (cell printed at this row, probably merged downwards)): Form C
Solubility ([1]; Water, 25° C., read-out: Solubility): ~1000 µg/mL (≈ 3.1 mM)
Solubility ([1]; Water, 50° C.): ~0 mg/mL solvent
XRPD ([1]; Water, 50° C. (cell printed at this row, probably merged downwards)): Form C
Solubility ([1]; acetone/n-heptane 1/1 (v/v), organic solvent or mixture, thermodynamic from solid, Acetone/n-hep = 1/1 (v/v), 25 ° C., read-out: Solubility): 18000 µg/mL (≈ 55.8 mM)
Solubility ([1]; acetone/n-heptane 1/2 (v/v), organic solvent or mixture, thermodynamic from solid, Acetone/n-hep = 1/2 (v/v), 25 ° C., read-out: Solubility): 10000 µg/mL (≈ 31 mM)
Solubility ([1]; acetone/n-heptane 1/3 (v/v), organic solvent or mixture, thermodynamic from solid, Acetone/n-hep = 1/3 (v/v), 25 ° C., read-out: Solubility): 5000 µg/mL (≈ 15.5 mM)
Solubility in words ([1]; in acetone, THF, 2-MeTHF, and MEK): high solubility
Solubility in words ([1]; in water, n-heptane, and MCH): poor solubility
XRPD ([1]; mixture solvents, 25 ° C. (printed at Acetone/MCH = 1/1, probably merged for all rows)): Form C
Solubility ([1]; n-PrOH, 25° C.): 21 mg/mL solvent
Solubility ([1]; n-PrOH, 50° C.): 48 mg/mL solvent
Solubility ([1]; organic solvent or mixture, thermodynamic from solid, 2-MeTHF/MCH = 1/1 (v/v), 25 ° C., read-out: Solubility): 18000 µg/mL (≈ 55.8 mM)
Solubility ([1]; organic solvent or mixture, thermodynamic from solid, 2-MeTHF/MCH = 1/2 (v/v), 25 ° C., read-out: Solubility): 6000 µg/mL (≈ 18.6 mM)
Solubility ([1]; organic solvent or mixture, thermodynamic from solid, 2-MeTHF/MCH = 1/3 (v/v), 25 ° C., read-out: Solubility): ~4000 µg/mL (≈ 12.4 mM)
Solubility ([1]; organic solvent or mixture, thermodynamic from solid, Acetone/MCH = 1/1 (v/v), 25 ° C., read-out: Solubility): 30000 µg/mL (≈ 93.1 mM)
Solubility ([1]; organic solvent or mixture, thermodynamic from solid, Acetone/MCH = 1/2 (v/v), 25 ° C., read-out: Solubility): 15000 µg/mL (≈ 46.5 mM)
Solubility ([1]; organic solvent or mixture, thermodynamic from solid, MEK/MCH = 1/1 (v/v), 25 ° C., read-out: Solubility): 20000 µg/mL (≈ 62 mM)
Solubility ([1]; organic solvent or mixture, thermodynamic from solid, MEK/MCH = 1/2 (v/v), 25 ° C., read-out: Solubility): 9000 µg/mL (≈ 27.9 mM)
XRPD of residual solids ([2]; pH 1.0 HCl solution (0.1N)): Form C
XRPD of residual solids ([2]; pH 3.0 citrate buffer (50 mM)): Form C
XRPD of residual solids ([2]; pH 5.0 acetate buffer (50 mM)): Form C
XRPD of residual solids [2, 7]: Form C
solubility at 2 h [2, 8]: 5.97 µg/mL (≈ 0.0185 mM)
solubility at 24 h [2, 8]: 4.08 µg/mL (≈ 0.0127 mM)
solubility at 2 h [2, 9]: 5.44 µg/mL (≈ 0.0169 mM)
solubility at 24 h [2, 9]: 3.85 µg/mL (≈ 0.0119 mM)
solubility at 2 h [2, 10]: 5.43 µg/mL (≈ 0.0168 mM)
solubility at 24 h [2, 10]: 11.6 µg/mL (≈ 0.0359 mM)
24 h (pH) of supernatant ([2]; pH 1.0 HCl solution (0.1N)): 1.0
24 h (pH) of supernatant ([2]; pH 3.0 citrate buffer (50 mM)): 3.1
24 h (pH) of supernatant ([2]; pH 5.0 acetate buffer (50 mM)): 5.1
24 h (pH) of supernatant [2, 7]: 7.3
solubility at 2 h [2, 11]: 17 µg/mL (≈ 0.0528 mM)
solubility at 24 h [2, 11]: 14.6 µg/mL (≈ 0.0452 mM)
Relative thermodynamic stability of anhydrates [3]: thermodynamically stable anhydrate
Stability compared to the other polymorph forms [4]: most stable polymorph
Form after the DVS test ([5]; DVS at 25° C.): still in Form C
Hygroscopicity ([5]; DVS at 25° C., below 90% relative humidity (RH)): non-hygroscopic
Water absorbed ([5]; DVS, 95% RH at 25° C.): about 0.2%
Bulk stability ([6]; 25° C./92% RH open, 40° C./75% RH open, 60° C. tight container, 1 week): physically and chemically stable
Bulk (XRPD) [6, 12]: Form C
Color [6, 12]: No color change
Purity, Bulk (HPLC) [6, 12]: 99.2%
Bulk (XRPD) [6, 13]: Form C
Color [6, 13]: No color change
Purity, Bulk (HPLC) [6, 13]: 99.1%
Bulk (XRPD) [6, 14]: Form C
Color [6, 14]: No color change
Purity, Bulk (HPLC) [6, 14]: 99.2%
Initial purity ([6]; before stress): 99.2%

— US12168650B2, “Crystalline forms of 3-(5-(2-hydroxy-2-methylpropoxy)-6-methylpyrazin-2-yl)-1H-indole-7-carbonitrile” (NIDO BIOSCIENCES, INC., priority 2022, dated 2024)
